Experimental findings from ChEMBL document CHEMBL1201862, “PubChem BioAssay data set” (2004) are described below.

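The compound was tested at five concentrations on cells cultured in 96-well plates, with a 48-hour exposure period. GI50 = concentration required for 50% inhibition of growth.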 Activity calls are given as the source filed them. No stated cut-off is given here; in the data, active = GI50 up to about 1.1 µM and inactive = higher. Square brackets hold non-standard residues; d marks the D form. Peptide text beside a SMILES is read from it. * marks the point of attachment. Bn2Val = CC(C)[C@@H](C(=O)*)N(Cc1ccccc1)Cc1ccccc1; NH(3,4-diMeO-benzyl) = COc1ccc(CN*)cc1OC; NMeV = CN[C@H](C(=O)O)C(C)C; dNMeA = CN[C@H](C)C(=O)O

Some test systems named below: A498; CCRF-CEM; COLO 205; DU-145; HCC 2998; HCT-116; HOP-92; HT-29; IGROV-1; LOX IMVI; MDA-MB-435; MDA-N; Malme-3M; NCI/ADR-RES; OVCAR-3; PC-3; SK-MEL-2; SW-620; TK-10; UACC-62.
What all share (experiment): DTP human tumour cell line panel, 48 h

Take `CC(=O)c1cc(S(=O)(=O)c2ccc(O)c(C(C)=O)c2)ccc1O`: the GI50 (as a rule, the concentration at which growth is held to half of that of the control) with A498 was 64.4 µM (inactive); with CCRF-CEM, 34.4 µM (inactive); in the assay with COLO 205 it was > 100 µM (inactive); in the assay on DU-145 it was > 100 µM (inactive); with HCC 2998, 58.2 µM (inactive); with HCT-116 it was 92 µM (inactive). In addition, the GI50 was > 100 µM (inactive) with HOP-92; > 100 µM (inactive) in the assay with HT-29; > 100 µM (inactive) in the assay with IGROV-1; 70.3 µM (inactive) in the assay on LOX IMVI; 51.3 µM (inactive) in the assay with MDA-MB-435; > 100 µM (inactive) in the assay with MDA-N. In addition, the GI50 in the assay with Malme-3M is > 100 µM (inactive); in the assay with NCI/ADR-RES, 58.7 µM (inactive); in the assay on OVCAR-3 it was > 100 µM (inactive); in the assay on PC-3 it was 75.5 µM (inactive); in the assay on SK-MEL-2 it was 92 µM (inactive); in the assay on SW-620, > 100 µM (inactive). For the same molecule, the results for the GI50 in the assay with TK-10 and in the assay with UACC-62 were 52 µM (inactive) and 18.4 µM (inactive), respectively.
In the case of `O=C1C(c2c(O)[nH]c3ccc(Br)cc23)=Nc2ccc(Br)cc21`, the GI50 is > 100 µM (inactive) in the assay on A498; 63.5 µM (inactive) in the assay with CCRF-CEM; > 100 µM (inactive) in the assay with COLO 205; 25.4 µM (inactive) with DU-145; > 100 µM (inactive) with HCC 2998; 18 µM (inactive) with HCT-116. Also, the GI50 with HOP-92 is > 100 µM (inactive); in the assay on HT-29, 48.4 µM (inactive); in the assay with IGROV-1, 1.71 µM (inactive); in the assay on LOX IMVI, 62.1 µM (inactive); in the assay on MDA-MB-435 it was 40.7 µM (inactive); with MDA-N, 31.2 µM (inactive). For the same molecule, the GI50 in the assay with Malme-3M is 46 µM (inactive); with NCI/ADR-RES, 34 µM (inactive); in the assay on OVCAR-3, > 100 µM (inactive); with PC-3 it was 51.3 µM (inactive); in the assay on SK-MEL-2, > 100 µM (inactive); in the assay on SW-620, 74.5 µM (inactive). Also, the values for the GI50 in the assay on TK-10 and in the assay with UACC-62 were 72.9 µM (inactive) and > 100 µM (inactive), respectively.
For the molecule `O=C1CC(NC(=O)C(F)(F)F)c2c(Br)sc(N3CCC(c4ccccc4)CC3)c21` (stereo not given), the GI50 in the assay on A498 was > 100 µM (inactive); with CCRF-CEM, 4.05 µM (inactive); in the assay with COLO 205, > 100 µM (inactive); in the assay with DU-145 it was 22.2 µM (inactive); with HCC 2998 it was > 100 µM (inactive); in the assay with HCT-116, 11.1 µM (inactive). Further, the GI50 in the assay with HOP-92 is 3.87 µM (inactive); with HT-29 it was 56.5 µM (inactive); in the assay with IGROV-1 it was > 100 µM (inactive); with LOX IMVI it was 7.85 µM (inactive); in the assay with MDA-MB-435, > 100 µM (inactive); in the assay with MDA-N, 78.9 µM (inactive). Besides, the GI50 with Malme-3M is > 100 µM (inactive); with NCI/ADR-RES, 69 µM (inactive); in the assay on OVCAR-3, 6.25 µM (inactive); in the assay on PC-3, 25.6 µM (inactive); in the assay on SK-MEL-2 it was 0.973 µM (active); in the assay with SW-620 it was 43.4 µM (inactive). Also, the GI50 was 19 µM (inactive) with TK-10 and 20.4 µM (inactive) in the assay with UACC-62.
`COc1cc(Nc2nc3ccccc3nc2C(C)C)cc(OC)c1OC`: the GI50 in the assay on A498, in the assay with CCRF-CEM, in the assay with COLO 205, with DU-145, with HCC 2998 and with HCT-116 was > 100 µM (inactive) each time. Besides, the GI50 with HOP-92 was 34 µM (inactive); in the assay with HT-29 it was 36.4 µM (inactive); in the assay with IGROV-1 it was > 100 µM (inactive); in the assay with LOX IMVI it was > 100 µM (inactive); in the assay with MDA-MB-435 it was > 100 µM (inactive); in the assay on MDA-N it was > 100 µM (inactive). For the same molecule, the GI50 in the assay with Malme-3M was > 100 µM (inactive); in the assay on NCI/ADR-RES it was 68.4 µM (inactive); in the assay on OVCAR-3, > 100 µM (inactive); in the assay with PC-3, > 100 µM (inactive); in the assay on SK-MEL-2, > 100 µM (inactive); in the assay with SW-620 it was > 100 µM (inactive). Moreover, the GI50 in the assay on TK-10 and in the assay with UACC-62 was > 100 µM (inactive) throughout.
With `N/C(=N\c1ccc(Cl)c(Cl)c1)c1ccccc1N`, the GI50 was 22.3 µM (inactive) in the assay with A498; 27.7 µM (inactive) in the assay on CCRF-CEM; 20.6 µM (inactive) with COLO 205; 51.9 µM (inactive) in the assay with DU-145; 17.7 µM (inactive) in the assay with HCC 2998; 17.2 µM (inactive) in the assay on HCT-116. Moreover, the GI50 with HOP-92 is 2.88 µM (inactive); with HT-29 it was 24.3 µM (inactive); with IGROV-1, 13.3 µM (inactive); in the assay with LOX IMVI, 22.1 µM (inactive); in the assay on MDA-MB-435, 18.5 µM (inactive); in the assay on MDA-N it was 19.6 µM (inactive). The GI50 was 19 µM (inactive) in the assay with Malme-3M; 19.2 µM (inactive) with NCI/ADR-RES; 39.5 µM (inactive) in the assay on OVCAR-3; 19.3 µM (inactive) in the assay on PC-3; 15.4 µM (inactive) in the assay with SK-MEL-2; 63.8 µM (inactive) with SW-620. In addition, the values for the GI50 with TK-10 and with UACC-62 were 36.8 µM (inactive) and 54.5 µM (inactive), respectively.
For `COc1ccc(CNC(=O)[C@@H](C)N(C)C(=O)[C@@H]2CCCN2C(=O)[C@H](C(C)C)N(C)C(=O)[C@@H](NC(=O)[C@H](C(C)C)N(Cc2ccccc2)Cc2ccccc2)C(C)C)cc1OC` (Bn2Val-V[NMeV]P[dNMeA]-{NH(3,4-diMeO-benzyl)}), the GI50 is 11.5 µM (inactive) in the assay with A498; 2.23 µM (inactive) in the assay with CCRF-CEM; 6.55 µM (inactive) with COLO 205; 14 µM (inactive) in the assay on DU-145; 7.1 µM (inactive) in the assay with HCC 2998; 6.76 µM (inactive) in the assay on HCT-116. The GI50 in the assay on HOP-92 was 7.4 µM (inactive); in the assay on HT-29, 5.4 µM (inactive); in the assay on IGROV-1 it was 5.14 µM (inactive); in the assay on LOX IMVI it was 7.76 µM (inactive); in the assay on MDA-MB-435, 8.63 µM (inactive); in the assay with MDA-N it was 9.06 µM (inactive). Also, the GI50 with Malme-3M was 8.67 µM (inactive); in the assay on NCI/ADR-RES, 7.19 µM (inactive); with OVCAR-3, 5.9 µM (inactive); in the assay on PC-3 it was 3.61 µM (inactive); with SK-MEL-2 it was 7.4 µM (inactive); in the assay with SW-620, 10.1 µM (inactive). Moreover, the GI50 is 11.7 µM (inactive) in the assay with TK-10 and 7.01 µM (inactive) with UACC-62.
As for `CC(=O)c1cc2c(Br)cccc2oc1=O`, the GI50 was > 100 µM (inactive) with A498; > 100 µM (inactive) in the assay on CCRF-CEM; > 100 µM (inactive) in the assay on COLO 205; > 100 µM (inactive) in the assay with DU-145; > 100 µM (inactive) with HCC 2998; 66.7 µM (inactive) in the assay with HCT-116. The GI50 is > 100 µM (inactive) with HOP-92; > 100 µM (inactive) in the assay with HT-29; > 100 µM (inactive) in the assay with IGROV-1; > 100 µM (inactive) in the assay with LOX IMVI; 54.5 µM (inactive) with MDA-MB-435; 52 µM (inactive) with MDA-N. The GI50 with Malme-3M, in the assay on NCI/ADR-RES, in the assay on OVCAR-3, in the assay on PC-3, with SK-MEL-2 and in the assay with SW-620 was > 100 µM (inactive) each time. In addition, the GI50 in the assay with TK-10 and in the assay with UACC-62 was > 100 µM (inactive) each time.
On to `CCOC(=O)/C=C(/C(=O)OCC)n1ccc(=O)n(/C(=C/C(=O)OCC)C(=O)OCC)c1=O`, for which the GI50 is 21.8 µM (inactive) with A498; 1.37 µM (inactive) with CCRF-CEM; 1.95 µM (inactive) in the assay with COLO 205; 18.6 µM (inactive) in the assay on DU-145; 18.4 µM (inactive) with HCC 2998; 2.39 µM (inactive) in the assay on HCT-116. Further, the GI50 was 2.07 µM (inactive) in the assay with HOP-92; 7.74 µM (inactive) with HT-29; 15.9 µM (inactive) in the assay on IGROV-1; 5.19 µM (inactive) with LOX IMVI; 8.34 µM (inactive) in the assay on MDA-MB-435; 13.5 µM (inactive) with MDA-N. Further, the GI50 with Malme-3M was 2.79 µM (inactive); in the assay with NCI/ADR-RES, 22.9 µM (inactive); in the assay with OVCAR-3 it was 6.19 µM (inactive); with PC-3, 15 µM (inactive); in the assay with SK-MEL-2 it was 12.7 µM (inactive); in the assay on SW-620, 2.04 µM (inactive). In addition, the values for the GI50 in the assay with TK-10 and in the assay with UACC-62 were 7.08 µM (inactive) and 14.8 µM (inactive), respectively.
In the case of `Nc1nc(-[n+]2ccc(-c3ccncc3)cc2)nc(Cl)c1Cl`, the GI50 in the assay with A498 is > 100 µM (inactive); in the assay with CCRF-CEM, 13.9 µM (inactive); in the assay on COLO 205 it was 36.2 µM (inactive); in the assay on DU-145, > 100 µM (inactive); in the assay on HCC 2998, > 100 µM (inactive); in the assay with HCT-116, > 100 µM (inactive). In addition, the GI50 in the assay with HOP-92 was 23.8 µM (inactive); in the assay on HT-29 it was 88.5 µM (inactive); in the assay on IGROV-1, 17.6 µM (inactive); in the assay on LOX IMVI, 15 µM (inactive); in the assay on MDA-MB-435, > 100 µM (inactive); in the assay with MDA-N it was > 100 µM (inactive). Moreover, the GI50 with Malme-3M was 34.9 µM (inactive); in the assay with NCI/ADR-RES, > 100 µM (inactive); in the assay on OVCAR-3 it was 17.3 µM (inactive); in the assay with PC-3 it was 54.3 µM (inactive); in the assay on SK-MEL-2, 57.4 µM (inactive); in the assay on SW-620, 25.5 µM (inactive). The GI50 in the assay with TK-10 was 26.3 µM (inactive); in the assay on UACC-62, > 100 µM (inactive).
As to `Nc1nc(Cl)nc(NCc2ccccc2)n1`, the GI50 in the assay with A498, in the assay on CCRF-CEM, in the assay with COLO 205, with DU-145, in the assay with HCC 2998 and with HCT-116 was > 100 µM (inactive) throughout. Moreover, the GI50 in the assay on HOP-92, in the assay with HT-29, in the assay on IGROV-1, in the assay on LOX IMVI, in the assay on MDA-MB-435 and in the assay with MDA-N was > 100 µM (inactive) in each case. For the same molecule, the GI50 in the assay with Malme-3M, with NCI/ADR-RES, in the assay with OVCAR-3, in the assay with PC-3, with SK-MEL-2 and with SW-620 was > 100 µM (inactive) throughout. For the same molecule, the GI50 with TK-10 and in the assay with UACC-62 was > 100 µM (inactive) in each case.
